Laboratory results as given in patent US8518989B2, “Prodrugs of short-chain fatty acids and treatment methods” (Georgia Health Sciences University Research Institute, Inc., priority 2005, dated 2013).

What was measured:
HDAC = HDAC activity in a cell-free system with MCF7 cell lysate; assay type: biochemical, human
Procedure: Measurement of HDAC activity in a cell-free system: This was done using a commercially available assay kit (BioVision). MCF7 cell lysate was used as a source of HDAC activity. 50 μg of lysate protein was incubated with various monocarboxylates (1 mM), or trichostatin A (20 μM), and the reaction was initiated by the addition of HDAC substrate. The reaction was then terminated and the deacetylated product was measured according to the manufacturer's instructions. The activity is expressed in nmoles of deacetylated product formed per μg of MCF7 cell lysate protein per 30 min.

[1] = tested on: MCF7 cells transfected with SMCT1 cDNA; experiment: Colony formation assay in MCF7 cells transfected with SMCT1 cDNA; assay type: cell-based, human; conditions: SMCT1-expressing MCF7 cells
MCF7, T47D, and ZR75.1 = experiment: Apoptosis in breast tumor cell lines (FACS, sub-G1); assay type: cell-based, human
Procedure: (§1) Cell cycle analysis: Cells were fixed in 50% ethanol, treated with 0.1% sodium citrate, 1 mg/ml RNase A, and 50 μg/ml propidium iodide, and subjected to FACS (Becton Dickinson FacsCaliber) analysis. Cells with DNA content below Cl were scored as apoptotic population.

[2] = tested on: SMCT1 and C/EBPδ expression; experiment: Induction of SMCT1 and C/EBPδ expression in MCF7 cells (RT-PCR); assay type: cell-based, human; conditions: NaB 5 mM, TSA 1 μM, MAA 5 mM, VPA 2 mM, 18 or 24 h
Procedure: RT-PCR: Two μg of RNA was reverse transcribed using the Gene Amp PCR system (Roche) according to the manufacturer's instructions. Amplification of cDNA corresponding to mouse [NT] (sense) (SEQ ID NO:9), [NT] (anti-sense) (SEQ ID NO: 10)], mouse [NT] (sense) (SEQ ID NO:11), [NT] (anti-sense) (SEQ ID NO:12)], human [NT] (sense) (SEQ ID NO:13), [NT] (anti-sense) (SEQ ID NO:14)], and human C/EBPδ [[NT] (sense) (SEQ ID NO:15), [NT] (anti-sense) (SEQ ID NO:16)] was carried out using HPRT1 (hypoxanthine guanine phosphoribosyl transferase 1) as an internal control.

HMEC, HBL100, and MCF10A = experiment: Apoptosis in non-transformed mammary epithelial cell lines (FACS, sub-G1); assay type: cell-based, human; conditions: normal mammary epithelial cells expressing SMCT1
Procedure: as §1

[3] = tested on: all three isoforms of NOS; conditions: read-out: Km for arginine; cited from earlier work

Row | SMILES | Induction of apoptosis (MCF7, T47D, and ZR75.1) | Induction of SMCT1 and C/EBPδ expression [2] | further results
1 | CC(O)C(=O)O (stereo not shown) [lactate] | – | – | HDAC inhibition (in words) (HDAC): does not; Effect on cell growth / apoptosis [1]: no effect on cell growth
2 | CCCC(CCC)C(=O)O [valproate, valproic acid] | do not have any effect on apoptosis | no or little activity | –
3 | CC(/C=C/C(=O)NO)=C\[C@@H](C)C(=O)c1ccc(N(C)C)cc1 [trichostatin A] | cause apoptosis specifically in tumor cell lines | induce the expression of both genes | Induction of apoptosis (HMEC, HBL100, and MCF10A): does not induce apoptosis
4 | N=C(N)NCCC[C@H](N)C(=O)O [arginine] | – | – | Km [3]: 3 to 30 µM
5 | COCC(=O)O [methoxyacetate, methoxyacetic acid] | do not have any effect on apoptosis | no or little activity | –
